Holding throughout (assay): growth of human tumour cells (NCI), 48 h
In experiment [1] the test system is NCI/ADR-RES ovarian.
The test system of experiment [2] is PC-3 prostate.
The test system of experiment [3] is T-47D breast.
Experiment [4] relates to MDA-N.

From PubChem BioAssay (NCI) come the findings set out here.

Values joined by “and” are separate entries in the source; they are usually repeats but may differ in a detail not shown here. Equal values may be shown once.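 Five concentrations, 48 hours, 96-well plates. Abbreviation: GI50, concentration required for 50% inhibition of growth. TGI: concentration producing complete growth inhibition.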 Some results are limits rather than exact numbers.

Take `COc1cc(-n2cc(-c3ccccc3)[nH]c2=O)cc(OC)c1OC`: the figures for the GI50 in experiment [1], in experiment [2] and in experiment [3] were 33 µM, 40 µM and 30.5 µM, respectively. Besides, the TGI in experiment [1], in experiment [2] and in experiment [3] was > 100 µM each time.

Regarding `NCCCOc1cc2ccccc2cc1C(=O)Nc1ccc(Cl)cc1OC(=O)c1cc2ccccc2cc1OCCCN`, the GI50 in experiment [1] was 1.17 µM; in experiment [2] it was 0.575 µM; in experiment [3], 0.282 µM. Moreover, the TGI in experiment [1] came out at 2.79 µM; in experiment [2] it was 1.58 µM; in experiment [3], 1.02 µM.

Regarding `COc1cccc(/C=C/c2nc3c(cnn3-c3ccccc3)c(=O)[nH]2)c1`, the values for the GI50 in experiment [1] and in experiment [2] were > 33.7 µM and > 100 µM, respectively. Besides, the TGI in experiment [1], in experiment [2] and in experiment [3] was > 100 µM throughout.

Turning to `O=[N+]([O-])c1cccc(-c2nc(-c3ccc(Cl)cc3Cl)cn2-c2ccccc2)c1`, the GI50 was 1.56 µM in experiment [1], 0.391 µM in experiment [2] and 0.922 µM in experiment [3]. The TGI in experiment [1] is 15.6 µM; in experiment [2], 10.8 µM; in experiment [3], 2.9 µM.

As to `N#CC1=C(N)NC(=S)NC1c1ccc(-c2ccc(-c3nc4ccccc4o3)cc2)s1` (stereo not given), the GI50 is 12.1 µM in experiment [1], 9.78 µM in experiment [2] and 15.4 µM in experiment [3]. Moreover, the TGI in experiment [1] was 30.1 µM; in experiment [2] it was > 50 µM; in experiment [3], > 50 µM.

Take `Nc1ccccc1C#C/C=C\C#CC#C/C=C\C#Cc1ccccc1N`: the figures for the GI50 in experiment [1], in experiment [2] and in experiment [3] were 2.85 µM, 2.59 µM and 6.47 µM, respectively. In addition, the TGI in experiment [1] is 16.3 µM; in experiment [2] it was 16.5 µM; in experiment [3] it was > 100 µM.

On to `CCOC(=O)Nc1nc2ccccc2[nH]1`, for which the GI50 was 3.55 µM and 3.47 µM in experiment [1]; 6.6 µM and 4.07 µM in experiment [2]; 5.76 µM and 4.62 µM in experiment [3]. For the same molecule, the TGI is 35.3 µM and > 25.9 µM in experiment [1]; > 100 µM in experiment [2]; > 100 µM in experiment [3].

Consider `C=CC(COC(=O)C(C)(C)OC(C)=O)c1ccc(OC(=O)C(C)C)c(OC)c1` (stereo not given), for which the TGI is 14 µM in experiment [4], > 84.9 µM in experiment [1], 27 µM in experiment [2] and > 37.2 µM in experiment [3].

For the molecule `Cc1ccc(Nc2cc(Cl)c([N+](=O)[O-])cc2[N+](=O)[O-])cc1`, the values for the GI50 in experiment [1], in experiment [2] and in experiment [3] were 3.83 µM, 3.59 µM and 3.28 µM, respectively. In addition, the TGI in experiment [1] was found to be 24 µM; in experiment [2], 14.2 µM; in experiment [3], 9.51 µM.

`Cc1cc(-c2nnc(/C=C/c3ccc4c(c3)OCO4)o2)n[nH]1`: the figures for the GI50 in experiment [1], in experiment [2] and in experiment [3] were 7.33 µM, 7.87 µM and 22 µM, respectively. The TGI is 21.4 µM in experiment [1], > 50 µM in experiment [2] and > 50 µM in experiment [3].

On to `CS(=O)(=O)Nc1cc(-c2ccc3ncnc(Nc4ccc(F)c(Cl)c4)c3c2)cnc1Cl`, for which the GI50 is 2.06 µM and 2.07 µM in experiment [1]; 0.594 µM and 0.562 µM in experiment [2]; 0.0323 µM and 0.0901 µM in experiment [3]. Moreover, the TGI is 30.5 µM and 20 µM in experiment [1]; 5.2 µM and 7.02 µM in experiment [2]; 0.437 µM and 0.892 µM in experiment [3].

In the case of `COc1ccc(/C(C)=N/NC(=O)CSc2nc3ccccc3c(=O)n2CCc2ccc(S(N)(=O)=O)cc2)cc1`, in experiment [1], the GI50 is 11.7 µM and the TGI is > 100 µM. For the same molecule, in experiment [2], the GI50 was 1.98 µM and the TGI came out at 4.15 µM.

As for `C=C1C(=O)OC2C1C(OC(=O)/C(C)=C/C)CC(O)(CCl)C1C(O)C=C(C)C21O` (stereo not given), the TGI in experiment [4] was 37.3 µM; in experiment [1], 55.6 µM; in experiment [2] it was > 51.3 µM; in experiment [3], 42.2 µM.

On to `O=C1CC[C@H](N2Cc3c(OCc4ccc(CN5CCOCC5)cc4)cccc3C2=O)C(=O)N1`, for which the GI50 in experiment [1], in experiment [2] and in experiment [3] was > 100 µM each time. Moreover, the TGI in experiment [1], in experiment [2] and in experiment [3] was > 100 µM in each case.

In the case of `Cc1cc(C(=O)Nc2n[nH]c3ccccc23)n[nH]1`, the GI50 in experiment [1], in experiment [2] and in experiment [3] was > 100 µM each time. The TGI in experiment [1], in experiment [2] and in experiment [3] was > 100 µM each time.

In the case of `Cc1ccc(C(=O)NCCCOc2ccc(N3C(N)=NC(N)=NC3(C)C)cc2Cl)cc1S(=O)(=O)F`, the results for the GI50 in experiment [1], in experiment [2] and in experiment [3] were > 100 µM, 5.9 µM and > 100 µM, respectively. The TGI in experiment [1], in experiment [2] and in experiment [3] was > 100 µM throughout.

With `Nc1c(C(=O)Nc2ccccn2)sc2nc3c(cc12)C(O)CCC3` (stereo not given), in experiment [1], the GI50 was 1.83 µM and the TGI was > 50 µM. In experiment [2], the GI50 is 1.34 µM and the TGI was > 50 µM.

With `COc1ccc(C(C)c2cc(OC)c(OC)c(OC)c2)cc1` (stereo not given), in experiment [1], the GI50 is 0.0574 µM and the TGI is > 50 µM. In addition, in experiment [2], the GI50 is 0.165 µM and the TGI was > 50 µM.

As to `O=C1Nc2cc(-c3cccc(O)c3)ccc2/C1=C/c1ccc[nH]1`, the figures for the GI50 in experiment [1], in experiment [2] and in experiment [3] were 2.51 µM, 2.53 µM and 0.17 µM, respectively. The TGI in experiment [1] turned out to be 12.5 µM; in experiment [2], 10.7 µM; in experiment [3], 0.472 µM.

For `Cc1ccc(C(=O)c2sc3nc4c(cc3c2N)CCCC4)c(C)c1`, the figures for the GI50 in experiment [1], in experiment [2] and in experiment [3] were 0.239 µM, 0.433 µM and 0.45 µM, respectively. For the same molecule, the figures for the TGI in experiment [1], in experiment [2] and in experiment [3] were > 100 µM, > 100 µM and > 69.8 µM, respectively.

On to `CNC(=O)c1cc(Oc2cccc3nc(NC(=O)Nc4cc(C(F)(F)F)cc(C(F)(F)F)c4)ccc23)ccn1`, for which the GI50 is 5.62 µM in experiment [1], 6.06 µM in experiment [2] and 4.13 µM in experiment [3]. Moreover, the TGI stood at 52 µM in experiment [1], 38.2 µM in experiment [2] and 31.1 µM in experiment [3].
